From patent US10131634B2, “Method of treating pain” (Poseida Therapeutics, Inc., priority 2011, dated 2018)

Tests used:
wild type rats [1] = assay: Side effects in wild type rats dosed with compound; type: in vivo, rat
Description: The quinoline structure Formula 1a is tested in cells and rats.

wild type rats [2] = assay: Pain related behaviours after colon mustard (MO) infusion in wild type rats; type: in vivo, rat

Structure (SMILES)	cardiotoxicity (wild type rats [1])	side effects (wild type rats [1])	inhibition of pain (wild type rats [2]; colon mustard infusion, FIG. 1 (lower body licking))	doses to inhibit pain related behaviors induced by intracolonic MO infusion (morphine equivalency) (wild type rats [2]; pre-treatment, s.c., FIGS. 7-9)
Cc1cc(N2CCCCC2)nc2ccccc12 [Formula 1a]	no cardiotoxicity	no obvious side effects	dose responsive inhibition of pain	–
CN1CC[C@]23c4c5ccc(O)c4O[C@H]2[C@@H](O)C=C[C@H]3[C@H]1C5 [morphine, reference compound]	–	–	–	requires much higher doses
